We go through 17 compounds from patent publication US9096560B2, “5-heterocyclylalkyl-3-hydroxy-2-phenylcyclopent-2-enones as herbicides” (Syngenta Limited, priority 2008, dated 2015).

Each structure is given as a SMILES string.

Common to all, as to assay type: in vivo
Experiment [1] has as its system Lolium perenne (LOLPE). Kind of experiment: Example B pre-emergence herbicidal test, LOLPE. The conditions noted are these: Lolium perenne, 312 h, rate 250 g/ha, evaluated after 13 days, 100=total damage to plant, 0=no damage to plant. A digest of the protocol:
(§1)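 Pre-emergence spray one day after sowing; vehicle acetone/water (50:50), 0.5% Tween 20. Percent damage (0 = no effect, 100 = plant killed) recorded 13 days later.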

The subject of experiment [2] is Alopecurus myosuroides (ALOMY). The experiment can be described thus: Example B pre-emergence herbicidal test, ALOMY. The conditions noted are these: Alopecurus myosuroides, 312 h, rate 250 g/ha, evaluated after 13 days, 100=total damage to plant, 0=no damage to plant. A digest of the protocol:
as §1

The test system of experiment [3] is Echinochloa crus-galli (ECHCG). The experiment can be described thus: Example B pre-emergence herbicidal test, ECHCG. Conditions: Echinochloa crus-galli, 312 h, rate 250 g/ha, evaluated after 13 days, 100=total damage to plant, 0=no damage to plant. A digest of the protocol:
as §1

The subject of experiment [4] is Avena fatua (AVEFA). The experiment can be described thus: Example B pre-emergence herbicidal test, AVEFA. The conditions noted are these: Avena fatua, 312 h, rate 250 g/ha, evaluated after 13 days, 100=total damage to plant, 0=no damage to plant. The method, boiled down:
as §1

Experiment [5] relates to Lolium perenne (LOLPE). Kind of experiment: Example B post-emergence herbicidal test, LOLPE. Conditions: Lolium perenne, 312 h, rate 250 g/ha, evaluated after 13 days, scale 0-100, read-out: Post-emergence activity LOLPE (100=total damage to plant; 0=no damage to plant). A digest of the protocol:
(§2)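 Plants grown 8 days in glasshouse (24/16 °C day/night, 14 h light, 65% humidity), then sprayed with aqueous solution from acetone/water (50:50) formulation with 0.5% Tween 20. Damage scored 13 days later on a 0–100 scale (100 = total damage).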

Experiment [6] relates to Alopecurus myosuroides (ALOMY). Kind of experiment: Example B post-emergence herbicidal test, ALOMY. Conditions: Alopecurus myosuroides, 312 h, rate 250 g/ha, evaluated after 13 days, scale 0-100, read-out: Post-emergence activity ALOMY (100=total damage to plant; 0=no damage to plant). The method, boiled down: as §2
Experiment [7] has as its system Echinochloa crus-galli (ECHCG). The experiment can be described thus: Example B post-emergence herbicidal test, ECHCG. The conditions noted are these: Echinochloa crus-galli, 312 h, rate 250 g/ha, evaluated after 13 days, scale 0-100, read-out: Post-emergence activity ECHCG (100=total damage to plant; 0=no damage to plant). A digest of the protocol: as §2
The subject of experiment [8] is Avena fatua (AVEFA). The experiment can be described thus: Example B post-emergence herbicidal test, AVEFA. The conditions noted are these: Avena fatua, 312 h, rate 250 g/ha, evaluated after 13 days, scale 0-100, read-out: Post-emergence activity AVEFA (100=total damage to plant; 0=no damage to plant). The method, boiled down:
as §2

Regarding `Cc1cc(C)c(C2C(=O)CC(CC3CCN(C(=O)c4ccco4)CC3)C2=O)c(C)c1` (stereo not shown) [Compound T90], the pest or weed control at 250 g/ha in the experiment on Lolium perenne (LOLPE) [1] turned out to be 60%; in experiment [2], 40%; in experiment [3], 50%; with Avena fatua (AVEFA) [4], 60%; in the experiment with Lolium perenne (LOLPE) [5] it was 80%; in experiment [6], 70%. Besides, the pest or weed control at 250 g/ha in experiment [7] came out at 80%; in the experiment on Avena fatua (AVEFA) [8], 100%.
On to `Cc1cc(C)c(C2C(=O)CC(CC3CCN(C(=O)c4ccc(C(F)(F)F)cc4)CC3)C2=O)c(C)c1` (stereo not shown) [Compound T99], for which the pest or weed control at 250 g/ha in the experiment on Lolium perenne (LOLPE) [1] was 60%; in experiment [2], 20%; in experiment [3], 60%; with Avena fatua (AVEFA) [4], 30%; in the experiment with Lolium perenne (LOLPE) [5], 50%; in experiment [6], 70%. The pest or weed control at 250 g/ha (in experiment [7]; in the experiment on Avena fatua (AVEFA) [8]) was 90% each time.
As for `Cc1cc(C)c(C2=C(OC(=O)C3CCCCC3)CC(CC3CCOC3)C2=O)c(C)c1` (stereo not shown) [Compound P15], the pest or weed control at 250 g/ha is 100% in the experiment on Lolium perenne (LOLPE) [1]; 100% in experiment [2]; 100% in experiment [3]; 90% with Avena fatua (AVEFA) [4]; 100% with Lolium perenne (LOLPE) [5]; 100% in experiment [6]. Further, the values for the pest or weed control at 250 g/ha (in experiment [7]; in the experiment with Avena fatua (AVEFA) [8]) were 100% and 90%, respectively.
Turning to `Cc1cc(C)c(C2C(=O)CC(CC3CCN(C(=O)C(Cl)(Cl)Cl)CC3)C2=O)c(C)c1` (stereo not shown) [Compound T105], the pest or weed control at 250 g/ha is 60% in the experiment with Lolium perenne (LOLPE) [1]; 20% in experiment [2]; 40% in experiment [3]; 30% in the experiment with Avena fatua (AVEFA) [4]; 50% in the experiment with Lolium perenne (LOLPE) [5]; 30% in experiment [6]. The pest or weed control at 250 g/ha in experiment [7] came to 30%; in the experiment on Avena fatua (AVEFA) [8], 40%.
In the case of `CCS(=O)(=O)N1CCC(CC2CC(=O)C(c3c(C)cc(C)cc3C)C2=O)CC1` (stereo not shown) [Compound T95], the pest or weed control at 250 g/ha is 100% in the experiment on Lolium perenne (LOLPE) [1]; 90% in experiment [2]; 60% in experiment [3]; 90% in the experiment on Avena fatua (AVEFA) [4]; 100% in the experiment with Lolium perenne (LOLPE) [5]; 90% in experiment [6]. Moreover, the pest or weed control at 250 g/ha was 70% in experiment [7] and 100% in the experiment with Avena fatua (AVEFA) [8].
As to `Cc1cccc(C)c1C1C(=O)CC(CC2CCOCC2)C1=O` (stereo not shown) [Compound T52], the pest or weed control at 250 g/ha amounted to 100% with Lolium perenne (LOLPE) [1]; 100% in experiment [2]; 80% in experiment [3]; 80% in the experiment with Avena fatua (AVEFA) [4]; 90% in the experiment on Lolium perenne (LOLPE) [5]; 90% in experiment [6]. Also, the pest or weed control at 250 g/ha in experiment [7] was 100%; in the experiment with Avena fatua (AVEFA) [8] it was 80%.
With `COC(=O)N1CCC(CC2CC(=O)C(c3c(C)cc(C)cc3C)C2=O)C1` (stereo not shown) [Compound T43], the pest or weed control at 250 g/ha came to 100% in the experiment on Lolium perenne (LOLPE) [1]; 80% in experiment [2]; 100% in experiment [3]; 100% in the experiment with Avena fatua (AVEFA) [4]; 100% in the experiment with Lolium perenne (LOLPE) [5]; 90% in experiment [6]. In addition, the pest or weed control at 250 g/ha in experiment [7] was 80%; with Avena fatua (AVEFA) [8] it was 90%.
On to `CC(C)=CC(=O)N1CCC(CC2CC(=O)C(c3c(C)cc(C)cc3C)C2=O)C1` (stereo not shown) [Compound T144], for which the pest or weed control at 250 g/ha in the experiment on Lolium perenne (LOLPE) [1] was 70%; in experiment [2] it was 80%; in experiment [3], 90%; in the experiment with Avena fatua (AVEFA) [4], 70%; in the experiment on Lolium perenne (LOLPE) [5], 80%; in experiment [6] it was 80%. The values for the pest or weed control at 250 g/ha (in experiment [7]; in the experiment on Avena fatua (AVEFA) [8]) were 80% and 90%, respectively.
Regarding `CON1CCC(CC2CC(OC(=O)C(C)(C)C)=C(c3c(C)cc(C)cc3C)C2=O)CC1` (stereo not shown) [Compound P51], the pest or weed control at 250 g/ha (in the experiment with Lolium perenne (LOLPE) [1]; in experiment [2]; in experiment [3]; in the experiment on Avena fatua (AVEFA) [4]; in the experiment with Lolium perenne (LOLPE) [5]; in experiment [6]) was 100% in each case. The pest or weed control at 250 g/ha (in experiment [7]; in the experiment on Avena fatua (AVEFA) [8]) was 100% each time.
Consider `Cc1cc(C)c(C2C(=O)CC(CC3CCN(C(=O)c4ccco4)C3)C2=O)c(C)c1` (stereo not shown) [Compound T147], for which the pest or weed control at 250 g/ha in the experiment with Lolium perenne (LOLPE) [1] was determined as 30%; in experiment [2], 50%; in experiment [3] it was 40%; in the experiment on Avena fatua (AVEFA) [4], 10%; with Lolium perenne (LOLPE) [5] it was 40%; in experiment [6], 60%. Besides, the pest or weed control at 250 g/ha was found to be 50% in experiment [7] and 70% in the experiment on Avena fatua (AVEFA) [8].
Regarding `Cc1cc(C)c(C2C(=O)CC(C)(C(O)C3CCOCC3)C2=O)c(C)c1` (stereo not shown) [Compound T27], the pest or weed control at 250 g/ha with Lolium perenne (LOLPE) [1] amounted to 100%; in experiment [2], 90%; in experiment [3] it was 80%; with Avena fatua (AVEFA) [4], 60%; in the experiment on Lolium perenne (LOLPE) [5] it was 80%; in experiment [6] it was 70%. Moreover, the pest or weed control at 250 g/ha in experiment [7] worked out at 80%; in the experiment with Avena fatua (AVEFA) [8] it was 70%.
On to `Cc1cc(C)c(C2C(=O)CC(CC3CCN(C(=O)c4cccs4)CC3)C2=O)c(C)c1` (stereo not shown) [Compound T110], for which the pest or weed control at 250 g/ha amounted to 50% in the experiment with Lolium perenne (LOLPE) [1]; 30% in experiment [2]; 70% in experiment [3]; 30% in the experiment on Avena fatua (AVEFA) [4]; 50% in the experiment with Lolium perenne (LOLPE) [5]; 30% in experiment [6]. In addition, the pest or weed control at 250 g/ha in experiment [7] stood at 40%; in the experiment on Avena fatua (AVEFA) [8], 80%.
Consider `CC(=O)N1CCC(CC2CC(=O)C(c3c(C)cc(C)cc3C)C2=O)C1` (stereo not shown) [Compound T35], for which the pest or weed control at 250 g/ha in the experiment with Lolium perenne (LOLPE) [1] was found to be 70%; in experiment [2] it was 30%; in experiment [3] it was 40%; in the experiment with Avena fatua (AVEFA) [4], 10%; in the experiment with Lolium perenne (LOLPE) [5] it was 70%; in experiment [6] it was 70%. In addition, the pest or weed control at 250 g/ha in experiment [7] was found to be 70%; with Avena fatua (AVEFA) [8] it was 60%.
Take `Cc1cc(C)c(C2C(=O)CC(CC3CCN(C(=O)OCCCl)CC3)C2=O)c(C)c1` (stereo not shown) [Compound T103]: the pest or weed control at 250 g/ha came out at 30% in the experiment with Lolium perenne (LOLPE) [1]; 30% in experiment [2]; 10% in experiment [3]; 20% with Avena fatua (AVEFA) [4]; 50% with Lolium perenne (LOLPE) [5]; 50% in experiment [6]. Moreover, the pest or weed control at 250 g/ha amounted to 30% in experiment [7] and 60% in the experiment on Avena fatua (AVEFA) [8].
Consider `Cc1cc(C)c(C2=C(OC(=O)OCC(C)C)CC(CC3CCOC3)C2=O)c(C)c1` (stereo not shown) [Compound P23], for which the pest or weed control at 250 g/ha was determined as 100% in the experiment with Lolium perenne (LOLPE) [1]; 100% in experiment [2]; 100% in experiment [3]; 80% in the experiment on Avena fatua (AVEFA) [4]; 100% in the experiment with Lolium perenne (LOLPE) [5]; 90% in experiment [6]. The pest or weed control at 250 g/ha (in experiment [7]; with Avena fatua (AVEFA) [8]) was 90% in each case.
With `Cc1cc(C)c(C2C(=O)CC(CC3CCN(c4ccc(Cl)cc4)CC3)C2=O)c(C)c1` (stereo not shown) [Compound T60], the pest or weed control at 250 g/ha with Lolium perenne (LOLPE) [1] was determined as 10%; in experiment [2], 10%; in experiment [3], 0%; in the experiment with Avena fatua (AVEFA) [4] it was 0%; in the experiment on Lolium perenne (LOLPE) [5], 20%; in experiment [6], 30%. Besides, the pest or weed control at 250 g/ha (in experiment [7]; in the experiment with Avena fatua (AVEFA) [8]) was 10% throughout.
`CCC(=O)OC1=C(c2c(C)cc(C)cc2C)C(=O)C(CC2CCN(C(=O)CC)CC2)C1` (stereo not shown) [Compound P65]: the pest or weed control at 250 g/ha in the experiment with Lolium perenne (LOLPE) [1] was 90%; in experiment [2] it was 60%; in experiment [3], 80%; with Avena fatua (AVEFA) [4], 60%; with Lolium perenne (LOLPE) [5], 90%; in experiment [6] it was 90%. Further, the pest or weed control at 250 g/ha (in experiment [7]; in the experiment with Avena fatua (AVEFA) [8]) was 90% each time.
